The structures appear in SMILES notation.

The data set is described as follows: UV absorption spectrum (λmax, E1%) of the UV filter compounds. It is filed as physicochemical. The note with it: for E1%: at main λmax; for E1% (shoulder): at shoulder; for λmax: main maximum.

For the compound `COC(=O)/C(=C\C=C\N(C)CCC[Si](C)(O[Si](C)(C)C)O[Si](C)(C)C)S(=O)(=O)c1ccc(C)cc1` [Example 1], where the note is “UV (Ethanol)”, the E1% was found to be 1154, the “E1% (shoulder)” value came to 773, the λmax worked out at 372 nm and the “λmax (shoulder)” value is given as 356 nm.

Turning to `C#CCN(C)C=CC=C(C(=O)OCC)S(=O)(=O)c1ccccc1` [ethyl-5-[methyl(prop-2-ynyl)amino]-2-(phenylsulfonyl)penta-2,4-dienoate], under “UV (CH2Cl2)”, the E1% is given as 1367, the “E1% (shoulder)” value is 1298, the λmax is 366 nm and the “λmax (shoulder)” value came out at 358 nm.

As for `C=CCN(C)C=CC=C(C(=O)OC)S(=O)(=O)c1ccc(C)cc1` [methyl-5-[allyl(methyl)amino]-2-[(4-methylphenyl)sulfonyl]penta-2,4-dienoate], under “UV (CH2Cl2)”, the E1% came to 1346, the “E1% (shoulder)” value is 1031, the λmax was 370 nm and the “λmax (shoulder)” value is reported as 356 nm.

(Values after patent US7510703B2, “UV-photoprotecting/sunscreen compositions comprising silane/siloxane derivatives of merocyanine sulfones” (L'Oreal, priority 2004, dated 2009).)
